# Measurements taken from US7011846B2, “Oral capsule formulation with increased physical stability” (Shire Laboratories, Inc., priority 2001, dated 2006).
# Assay: Capsule shell integrity with NMP alone or NMP:stabilizing agent 1:1 (wt/wt), banded capsules, observed for leakage and shell cracking
# Type: physicochemical
# Conditions: NMP alone filled into size 0 hard gelatin capsule
# Procedure: NMP was filled into a size 0 hard gelatin capsule in order to determine the effect of NMP on the integrity of the shell.
# To stabilize the capsule shell in presence of solution of NMP, various capsule stabilizing agents were studied for their stability inducing properties. Stabilizing agents were each incorporated into NMP separately. Formulations were prepared by mixing or dissolving each excipient in a vial containing NMP with a 1:1 ratio (wt/wt). The solutions were then encapsulated into size 0 hard gelatin capsules and banded to prevent leakage of the fill contents. Capsules were stored at ambient environment and observations were made at regular time intervals for leakage and capsule shell cracking.
smiles,measurement,value
"CN1CCCC1=O [#1, N-methyl-2-pyrrolidone]",Effect of NMP on the integrity of the capsule shell,"Within minutes, the capsule cracked causing the content to leak out"
